The nature of test [1]: Inhibition of recombinant N-terminal GST-tagged human HER2 expressed in sf9 insect cells using poly(Glu, Tyr) sodium salt (4:1, Glu:Tyr) as a substrate measured after 40 mins by Kinase-Glo reagent based luminescence analysis. (Kinase-Glo reads ATP consumption through a luciferase reaction.)
The target of test [2] is T1, Epidermal growth factor receptor (Homo sapiens, UniProt P00533). Kind of test: Inhibition of recombinant C-terminal His-tagged/N-terminal GST-tagged human EGFR expressed in sf9 insect cells using poly(Glu, Tyr) sodium salt (4:1, Glu:Tyr) as a substrate measured after 40 mins by Kinase-Glo reagent based luminescence analysis.
For test [3], the system named is EKVX. Kind of test: Anticancer activity against human EKVX assessed as cell growth inhibition at 10 uM incubated for 48 hrs relative to control. The test is classed as functional. The settings on record: pooled result: one value given for 8 cell lines, strains, targets or settings.
Test [4] concerns the target Epidermal growth factor receptor (Homo sapiens, UniProt P00533, T790M). Kind of test: Inhibition of EGFR T790M mutant (unknown origin).
Test [5] relates to NCI-H1975. As to the kind of experiment: Growth inhibition of human NCI-H1975 cells harbouring EGFR L858R/T790M double mutant. It counts as functional.
Test [6] concerns Epidermal growth factor receptor (Homo sapiens), P00533 [L858R]. Kind of test: Inhibition of EGFR L858R mutant (unknown origin) relative to control. The settings on record: concentration not given here.
Test [7] has as its system Epidermal growth factor receptor (Homo sapiens), P00533 [L858R,T790M]. As to the kind of experiment: Inhibition of EGFR T790M/L858R double mutant (unknown origin) relative to control.
Test [8] deals with T2, Tyrosine-protein kinase JAK3 (Homo sapiens) (UniProt P52333).
T2 sequence (whole entry): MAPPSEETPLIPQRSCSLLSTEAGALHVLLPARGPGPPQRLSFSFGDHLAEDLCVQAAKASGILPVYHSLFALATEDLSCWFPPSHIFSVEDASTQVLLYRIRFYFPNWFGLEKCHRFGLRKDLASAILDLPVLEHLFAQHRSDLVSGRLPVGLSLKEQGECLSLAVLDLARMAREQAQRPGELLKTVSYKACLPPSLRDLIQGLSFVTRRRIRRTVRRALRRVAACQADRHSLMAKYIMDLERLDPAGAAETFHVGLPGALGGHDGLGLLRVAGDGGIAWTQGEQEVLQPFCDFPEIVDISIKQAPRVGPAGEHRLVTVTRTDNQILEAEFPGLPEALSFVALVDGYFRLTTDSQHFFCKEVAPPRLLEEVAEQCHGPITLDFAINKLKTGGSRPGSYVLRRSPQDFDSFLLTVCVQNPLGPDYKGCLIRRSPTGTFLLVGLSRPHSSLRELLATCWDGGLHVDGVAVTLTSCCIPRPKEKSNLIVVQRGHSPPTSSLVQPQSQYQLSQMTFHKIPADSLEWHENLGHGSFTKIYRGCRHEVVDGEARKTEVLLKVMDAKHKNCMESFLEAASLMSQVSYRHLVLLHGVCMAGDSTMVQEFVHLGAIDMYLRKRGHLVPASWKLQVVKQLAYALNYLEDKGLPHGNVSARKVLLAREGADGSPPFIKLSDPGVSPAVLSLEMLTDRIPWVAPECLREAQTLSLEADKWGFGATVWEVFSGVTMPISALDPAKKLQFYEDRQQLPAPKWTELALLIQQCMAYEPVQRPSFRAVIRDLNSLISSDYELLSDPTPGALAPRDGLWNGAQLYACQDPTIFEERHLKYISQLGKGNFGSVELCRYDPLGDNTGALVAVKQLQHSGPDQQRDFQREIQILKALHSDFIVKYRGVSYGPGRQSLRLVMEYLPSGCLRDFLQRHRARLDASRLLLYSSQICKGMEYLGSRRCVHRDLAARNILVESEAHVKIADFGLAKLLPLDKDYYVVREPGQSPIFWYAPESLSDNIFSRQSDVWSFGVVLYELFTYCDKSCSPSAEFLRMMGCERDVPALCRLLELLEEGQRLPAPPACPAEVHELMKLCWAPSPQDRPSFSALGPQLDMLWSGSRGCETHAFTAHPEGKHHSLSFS
Kind of test: Inhibition of JAK3 (unknown origin).

Test [9] deals with MCF7. As to the kind of experiment: Potency index,ratio of test compound IC50 to Doxorubicin IC50 for antiproliferative activity against human MCF7 cells incubated for 48 hrs by MTT assay. The test is classed as functional.
Test [10] concerns MCF7. Kind of test: Potency index,ratio of test compound IC50 to Erlotinib IC50 for antiproliferative activity against human MCF7 cells incubated for 48 hrs by MTT assay. It counts as functional. (In general: Tetrazolium assays rely on reduction of a dye to a coloured formazan, in cell work by metabolically active cells.)
For test [11], the system named is MCF7. Kind of test: Anticancer activity against human MCF7 cells incubated for 48 hrs by MTT assay. The settings on record: MCF7, 48 h. It counts as functional, cell-based.
The target of test [12] is T1, Epidermal growth factor receptor. As to the kind of experiment: Inhibition of recombinant EGFR (unknown origin) using TMB as substrate incubated for 3 hrs in presence of ATP by ELISA. A general note: An ELISA detects its analyte on a solid surface through an enzyme-linked reagent.
The target in test [13] is Epidermal growth factor receptor (Homo sapiens, UniProt P00533, L858R/T790M). Kind of test: Inhibition of EGFR L858R/T790M double mutant (unknown origin) in presence of ATP by ADP-Glo assay.
Test [14] deals with Epidermal growth factor receptor (Homo sapiens, UniProt P00533, C797S/L858R/T790M). Kind of test: Inhibition of EGFR L858R/T790M/C797S triple mutant (unknown origin).
Test [15] has as its target Receptor tyrosine-protein kinase erbB-2 (Homo sapiens, UniProt P04626). As to the kind of experiment: Inhibition of ErbB2 (unknown origin) pre-incubated for 5 mins followed by substrate addition and measured after 30 mins in presence of ATP by microtitre plate reader analysis.
Test [16] deals with NCI-H460. Kind of test: Anticancer activity against human NCI-H460 cells assessed as cell viability incubated for 24 hrs by MTT assay. The test is classed as functional, cell-based.
The subject of test [17] is OVCAR-4. Kind of test: Anticancer activity against human OVCAR-4 cells assessed as cell viability incubated for 24 hrs by MTT assay. The test is classed as functional, cell-based. To be noted: OVCAR-4, 24 h.
In test [18] the test system is ACHN. Kind of test: Anticancer activity against human ACHN cells assessed as cell viability incubated for 24 hrs by MTT assay. The test is classed as functional, cell-based.
The subject of test [19] is HCC827. As to the kind of experiment: Antiproliferative activity against human HCC827 assessed as cell growth inhibition. The test is classed as functional, cell-based.
For test [20], the system named is NCI-H1975. Kind of test: Antiproliferative activity against human NCI-H1975 assessed as cell growth inhibition. It counts as functional, cell-based.
Test [21] has as its system BaF3. Kind of test: Antiproliferative activity against mouse BAF3 cells harboring EGFR 19D/T790M/C797S triple mutant. The test is classed as functional, cell-based.
Test [22] deals with BaF3. Kind of test: Antiproliferative activity against mouse BAF3 cells harboring EGFR L858R/T790M/C797S triple mutant. The test is classed as functional, cell-based.
The target in test [23] is T1, Epidermal growth factor receptor. Kind of test: Inhibition of EGFR (unknown origin) at 100 uM relative to control.
In test [24] the test system is HepG2. Kind of test: Anticancer activity against human HepG2 cells. It counts as functional, cell-based.
In test [25] the target is T1, Epidermal growth factor receptor. As to the kind of experiment: Inhibition of EGFR (unknown origin) at 50 uM relative to control.
For test [26], the system named is HCT-116. Kind of test: Anticancer activity against human HCT-116 cells. It counts as functional, cell-based.
Test [27] concerns PC-3. Kind of test: Anticancer activity against human PC-3 cells. The test is classed as functional, cell-based.
The test system of test [28] is NCI-H1975. Kind of test: Antiproliferative activity against human NCI-H1975 cells assessed as cell growth inhibition incubated for 72 hrs by MTT assay. The test is classed as functional, cell-based. The settings on record: NCI-H1975, 72 h.

The source of these data is ChEMBL document CHEMBL5096180, “Pyrimidine-based EGFR TK inhibitors in targeted cancer therapy” (Eur J Med Chem, 2021).

“And” between values parts separate entries of the source, which are not always exact repeats. Identical values can stand only once.

T1 sequence (P00533 whole entry): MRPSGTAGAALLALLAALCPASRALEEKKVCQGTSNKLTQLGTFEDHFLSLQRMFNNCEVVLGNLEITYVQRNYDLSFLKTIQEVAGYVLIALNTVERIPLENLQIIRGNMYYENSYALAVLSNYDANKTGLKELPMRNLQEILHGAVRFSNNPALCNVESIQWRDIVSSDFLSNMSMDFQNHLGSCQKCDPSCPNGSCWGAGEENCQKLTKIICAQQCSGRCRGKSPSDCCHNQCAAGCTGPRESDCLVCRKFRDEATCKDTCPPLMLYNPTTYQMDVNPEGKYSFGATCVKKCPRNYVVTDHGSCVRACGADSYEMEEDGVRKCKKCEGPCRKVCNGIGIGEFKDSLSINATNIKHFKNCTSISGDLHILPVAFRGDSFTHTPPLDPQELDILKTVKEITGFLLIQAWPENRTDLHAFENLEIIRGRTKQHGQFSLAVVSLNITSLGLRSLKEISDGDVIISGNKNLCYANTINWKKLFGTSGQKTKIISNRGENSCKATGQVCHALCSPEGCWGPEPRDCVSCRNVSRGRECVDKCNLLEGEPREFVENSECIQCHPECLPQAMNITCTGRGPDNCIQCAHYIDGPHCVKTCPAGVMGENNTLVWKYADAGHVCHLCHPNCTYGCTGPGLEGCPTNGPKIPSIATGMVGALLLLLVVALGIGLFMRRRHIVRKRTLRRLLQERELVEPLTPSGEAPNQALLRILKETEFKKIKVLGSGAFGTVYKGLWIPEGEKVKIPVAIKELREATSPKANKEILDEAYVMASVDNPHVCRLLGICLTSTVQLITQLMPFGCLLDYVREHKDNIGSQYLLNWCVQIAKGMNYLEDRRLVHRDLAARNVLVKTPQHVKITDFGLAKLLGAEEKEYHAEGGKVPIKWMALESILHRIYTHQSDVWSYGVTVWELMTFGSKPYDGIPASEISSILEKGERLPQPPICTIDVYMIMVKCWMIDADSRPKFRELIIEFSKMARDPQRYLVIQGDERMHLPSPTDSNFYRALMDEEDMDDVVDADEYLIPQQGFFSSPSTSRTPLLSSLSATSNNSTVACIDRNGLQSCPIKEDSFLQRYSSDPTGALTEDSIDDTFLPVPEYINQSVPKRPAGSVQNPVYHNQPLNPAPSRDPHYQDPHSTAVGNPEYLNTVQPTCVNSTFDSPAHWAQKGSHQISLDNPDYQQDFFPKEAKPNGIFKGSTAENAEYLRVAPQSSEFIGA
Chain of Epidermal growth factor receptor (Homo sapiens, UniProt P00533, T790M) (P00533 25-1210 T790M limits assumed): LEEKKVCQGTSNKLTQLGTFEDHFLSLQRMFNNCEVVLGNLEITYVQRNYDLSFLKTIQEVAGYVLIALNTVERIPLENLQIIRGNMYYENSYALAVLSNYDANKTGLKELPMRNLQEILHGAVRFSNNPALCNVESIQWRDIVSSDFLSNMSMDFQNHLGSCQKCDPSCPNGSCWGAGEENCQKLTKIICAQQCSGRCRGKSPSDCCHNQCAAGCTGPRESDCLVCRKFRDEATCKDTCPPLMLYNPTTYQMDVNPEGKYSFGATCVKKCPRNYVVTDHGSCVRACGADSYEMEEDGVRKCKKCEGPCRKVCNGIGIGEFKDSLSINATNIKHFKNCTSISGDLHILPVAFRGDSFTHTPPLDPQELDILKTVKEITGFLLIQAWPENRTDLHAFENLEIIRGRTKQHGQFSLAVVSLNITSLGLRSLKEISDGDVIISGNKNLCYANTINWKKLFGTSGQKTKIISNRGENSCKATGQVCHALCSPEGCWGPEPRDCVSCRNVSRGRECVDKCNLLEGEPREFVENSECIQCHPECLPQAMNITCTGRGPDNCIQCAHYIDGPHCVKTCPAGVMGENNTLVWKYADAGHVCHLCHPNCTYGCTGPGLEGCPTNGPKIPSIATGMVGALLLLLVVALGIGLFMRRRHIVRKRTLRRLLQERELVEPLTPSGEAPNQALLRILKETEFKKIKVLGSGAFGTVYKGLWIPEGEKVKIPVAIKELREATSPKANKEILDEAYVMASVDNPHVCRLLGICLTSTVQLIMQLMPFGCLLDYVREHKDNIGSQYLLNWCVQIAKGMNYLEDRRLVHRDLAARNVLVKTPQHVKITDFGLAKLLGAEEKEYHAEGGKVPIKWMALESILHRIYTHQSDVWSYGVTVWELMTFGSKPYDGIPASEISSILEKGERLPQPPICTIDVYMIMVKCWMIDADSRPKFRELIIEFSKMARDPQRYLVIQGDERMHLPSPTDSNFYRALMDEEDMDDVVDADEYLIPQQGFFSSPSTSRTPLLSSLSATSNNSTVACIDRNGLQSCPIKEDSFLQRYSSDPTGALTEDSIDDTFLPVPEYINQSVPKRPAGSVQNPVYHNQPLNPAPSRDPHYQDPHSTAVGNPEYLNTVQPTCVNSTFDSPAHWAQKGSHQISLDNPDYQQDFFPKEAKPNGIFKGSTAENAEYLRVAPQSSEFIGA
Chain of Epidermal growth factor receptor (Homo sapiens), P00533 [L858R] (P00533 whole entry L858R): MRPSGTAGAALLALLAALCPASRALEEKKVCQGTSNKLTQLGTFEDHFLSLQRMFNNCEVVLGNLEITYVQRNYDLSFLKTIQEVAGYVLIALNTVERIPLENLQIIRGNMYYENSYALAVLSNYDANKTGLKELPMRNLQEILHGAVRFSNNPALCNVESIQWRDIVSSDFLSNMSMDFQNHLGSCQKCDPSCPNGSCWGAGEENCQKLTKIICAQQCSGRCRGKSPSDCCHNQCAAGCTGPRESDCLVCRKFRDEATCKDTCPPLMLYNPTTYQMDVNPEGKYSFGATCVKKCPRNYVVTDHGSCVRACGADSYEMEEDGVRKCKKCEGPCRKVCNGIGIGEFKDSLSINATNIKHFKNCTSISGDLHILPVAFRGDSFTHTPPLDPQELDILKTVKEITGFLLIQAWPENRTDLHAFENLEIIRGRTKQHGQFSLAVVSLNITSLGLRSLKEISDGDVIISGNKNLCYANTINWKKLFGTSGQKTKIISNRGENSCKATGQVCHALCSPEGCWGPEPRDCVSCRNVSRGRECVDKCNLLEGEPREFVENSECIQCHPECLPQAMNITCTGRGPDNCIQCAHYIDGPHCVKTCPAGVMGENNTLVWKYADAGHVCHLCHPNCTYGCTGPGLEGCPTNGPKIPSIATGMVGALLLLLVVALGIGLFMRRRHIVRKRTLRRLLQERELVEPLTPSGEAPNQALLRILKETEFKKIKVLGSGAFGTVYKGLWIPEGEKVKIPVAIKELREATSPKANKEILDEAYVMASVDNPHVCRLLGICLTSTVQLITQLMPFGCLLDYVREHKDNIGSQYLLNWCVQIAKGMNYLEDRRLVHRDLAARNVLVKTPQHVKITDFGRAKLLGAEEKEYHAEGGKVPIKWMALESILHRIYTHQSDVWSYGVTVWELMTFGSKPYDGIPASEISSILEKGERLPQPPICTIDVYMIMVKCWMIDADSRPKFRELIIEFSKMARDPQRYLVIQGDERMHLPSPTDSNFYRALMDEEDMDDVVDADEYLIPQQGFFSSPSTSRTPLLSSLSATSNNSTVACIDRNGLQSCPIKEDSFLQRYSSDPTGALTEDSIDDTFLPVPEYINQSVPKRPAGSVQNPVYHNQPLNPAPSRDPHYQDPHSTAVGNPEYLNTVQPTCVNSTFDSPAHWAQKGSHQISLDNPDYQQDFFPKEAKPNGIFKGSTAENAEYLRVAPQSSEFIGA
Chain of Epidermal growth factor receptor (Homo sapiens), P00533 [L858R,T790M] (P00533 whole entry T790M/L858R, looked up): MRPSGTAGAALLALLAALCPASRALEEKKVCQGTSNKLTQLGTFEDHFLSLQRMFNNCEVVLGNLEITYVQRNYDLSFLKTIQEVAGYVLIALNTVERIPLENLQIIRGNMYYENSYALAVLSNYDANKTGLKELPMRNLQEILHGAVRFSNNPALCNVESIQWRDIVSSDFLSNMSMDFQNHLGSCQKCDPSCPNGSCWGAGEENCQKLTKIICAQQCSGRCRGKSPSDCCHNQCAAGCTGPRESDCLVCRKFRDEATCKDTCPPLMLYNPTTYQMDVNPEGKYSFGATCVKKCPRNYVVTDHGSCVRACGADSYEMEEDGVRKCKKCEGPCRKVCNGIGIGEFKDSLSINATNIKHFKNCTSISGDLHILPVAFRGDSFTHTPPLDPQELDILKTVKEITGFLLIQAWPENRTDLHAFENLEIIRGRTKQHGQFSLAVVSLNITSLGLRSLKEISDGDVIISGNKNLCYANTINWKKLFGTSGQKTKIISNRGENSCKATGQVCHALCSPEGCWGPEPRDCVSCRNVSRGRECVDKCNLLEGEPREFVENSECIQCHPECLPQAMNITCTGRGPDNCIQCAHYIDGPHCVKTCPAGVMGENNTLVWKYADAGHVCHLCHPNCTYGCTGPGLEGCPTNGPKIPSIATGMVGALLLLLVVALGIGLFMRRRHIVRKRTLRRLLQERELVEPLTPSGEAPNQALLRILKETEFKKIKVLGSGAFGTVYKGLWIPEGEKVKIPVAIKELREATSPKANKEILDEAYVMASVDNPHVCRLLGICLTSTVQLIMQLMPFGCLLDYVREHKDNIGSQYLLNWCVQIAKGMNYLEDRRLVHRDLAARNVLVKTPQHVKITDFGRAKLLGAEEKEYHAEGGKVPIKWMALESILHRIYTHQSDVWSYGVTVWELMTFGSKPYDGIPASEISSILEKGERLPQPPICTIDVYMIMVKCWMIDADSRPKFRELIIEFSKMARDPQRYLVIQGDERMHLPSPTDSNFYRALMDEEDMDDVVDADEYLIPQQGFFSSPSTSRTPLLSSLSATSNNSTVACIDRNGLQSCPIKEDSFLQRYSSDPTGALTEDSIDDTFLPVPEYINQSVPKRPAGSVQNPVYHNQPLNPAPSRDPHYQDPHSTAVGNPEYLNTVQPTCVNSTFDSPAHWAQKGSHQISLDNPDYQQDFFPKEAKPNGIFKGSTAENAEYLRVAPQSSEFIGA

`Fc1cccc(COc2ccc(Nc3ncnc4sc5c(c34)CCCC5)cc2Cl)c1`: the results for the IC50 in test [1] and in test [2] were 500 nM and 200 nM, respectively. Further, the inhibition (as a rule, the change of the read-out against control, counted positive when it falls) at 10 µM in test [3] was 42%.

Turning to `C=CC(=O)Nc1ccc(Nc2nccc(-c3cn(C)c4ccccc34)n2)cc1`, in [4], it took 180 nM to reach half-maximal inhibition (IC50).

Turning to `C=CC(=O)N1CCCC(n2nc(-c3cccc4ccccc34)c3c(N)ncnc32)C1` (centres undefined), the GI50 – broadly, the concentration at which growth is held to half of that of the control – in [5] came out at 490 nM.

As for `CCOC(=O)c1cnc(NC(N)=S)[nH]c1=O`, the inhibition in [6] and in [7] was 62% throughout.

`CCOC(=O)c1cnc(NC(N)=S)nc1C`: the inhibition in test [6] and in [7] was 62% in each case.

Turning to `CC#CC1=Nc2cc(Nc3nccc(-c4cn(C)c5ccccc45)n3)ccc2C(C)(C)O1`, in test [8], inhibition was half-maximal at 60 nM (IC50).

For the molecule `C=CC(=O)N1CCCC(n2nc(-c3cn(C)c4ccccc34)c3c(N)ncnc32)C1` (centres undefined), in test [5], the GI50 was 210 nM.

Consider `C=CC(=O)Nc1cccc(Oc2nc(Nc3ccc(OC)cc3)nc3c2CSCC3)c1`, for which the “Ratio IC50” value was found to be 4.64 in test [9] and 1.73 in test [10]. The IC50 (in general, the midpoint of a concentration-inhibition curve) in test [11] turned out to be 660 nM; in test [12] it was 28 nM.

`C=CC(=O)Nc1cccc(Nc2nc(Nc3ccc(SCC(=O)N4CCOCC4)cc3)ncc2Cl)c1`: the IC50 in test [13] came to 9.1 nM.

`C=CC(=O)N1CCCC(n2nc(-c3ccc4ccccc4c3)c3c(N)ncnc32)C1` (centres undefined) had an IC50 in [14] of 88 nM. The molecule further displayed a GI50 in test [5] of 140 nM.

As to `Cc1nn(-c2ccc(F)cc2)c2c(Nc3ccc(F)c(Cl)c3)ncnc12`, the IC50 in [15] was 250 nM; in test [16] it was 1740 nM and 4440 nM; in [17] it was 1740 nM; in test [18], 5530 nM.

As for `CN(C)C1CCN(c2ccc(Nc3cc4c(N5CCC(CO)CC5)nc(Nc5ccc(F)cc5)nc4cn3)nc2)CC1`, the IC50 in test [19] and in [20] was 40 nM each time.

For the molecule `CCC(=O)NC1CCC(N2C(=O)N(c3ccccc3Cl)Cc3cnc(Nc4ccc(N5CCN(C)CC5)c(C)c4)nc32)CC1` (centres undefined), the IC50 in test [21] came out at 310 nM; in test [22], 290 nM.

With `Cc1ccc(-c2cc(-c3ccc(Cl)cc3)nc3nc(-n4[nH]c(C)cc4=O)[nH]c(=O)c23)cc1`, the inhibition in test [23] was 86%; in test [25], 81%. Further, the IC50 in test [24] was 300 nM; in [26] it was 7000 nM; in test [27] it was 6600 nM.

`CC#CC(=O)Nc1ccc(Nc2nccc(-c3cn(C)c4ccccc34)n2)cc1` had an IC50 in test [4] of 220 nM.

With `C=CC(=O)Nc1cccc(Nc2nc(Nc3ccc(SCCCN4CCOCC4)cc3)ncc2Cl)c1`, the IC50 is 74 nM in test [28] and 27.5 nM in test [13].
